In patent publication US20230348447A1, “OXAZOLIDINONE COMPOUNDS, LIPOSOME COMPOSITIONS COMPRISING OXAZOLIDINONE COMPOUNDS AND METHOD OF USE THEREOF” (priority 2020, published 2023):
In brackets after ≈: the same amount, converted by molar mass. Several values for one entry are separate records, joined by “and”; a condition that tells them apart may be missing. Identical values can stand only once. Like-named read-outs stand apart in the source and are kept apart here.

What was measured:
[1] = system: MRSA ATCC BAA-1556; assay: MIC against methicillin resistant Staphylococcus aureus (MRSA)
[2] = system: MRSA ATCC 43300; assay: as above; details: read-out: MRSA MIC, ATCC 43300
[3] = Aqueous solubility (visually clear solutions); format: physicochemical; details: for Concentration % (w/w) of free base (visually clear solution): aqueous, 1 N HCl and/or water added
Protocol: Working stocks of the compounds were prepared as follows: to an aliquot of a compound (free base) in a powder form 1-1.5 equivalents of HCl in the form of 1 N aqueous solution was added, and the mixture was vortexed until homogeneity. To the resulting cake or syrup, water was added typically to the final 10 mg/ml, and complete dissolution was observed. In some instances, 0.95 equivalents of HCl were added to the free base form of the drug, and 20 mg/ml stock solution was prepared.
Aqueous solubility of the compounds of the present disclosure is illustrated by the following observations of obtaining visually clear solutions: […]

[4] = system: M. chelonae; assay: MIC in nontuberculosis mycobacteria (microbroth dilution, resazurin); format: cell-based, Mycobacterium chelonae; details: Mycobacteroides chelonae
[5] = system: M.avium; assay: as above; format: cell-based, Mycobacterium avium; details: for MIC: Mycobacterium avium
[6] = system: M.tb Erdman; assay: Broth microdilution MIC with Alamar blue endpoint (MABA) / OD600; format: cell-based, Mycobacterium tuberculosis
[7] = system: M. abscessus; assay: MIC in nontuberculosis mycobacteria (microbroth dilution, resazurin); format: cell-based, Mycobacterium abscessus; details: Mycobacteroides abscessus
[8] = system: M.tb H37Rv; assay: Broth microdilution MIC with Alamar blue endpoint (MABA) / OD600; format: cell-based, Mycobacterium tuberculosis
[9] = system: MRSA 880 NR-49120; assay: MIC against methicillin resistant Staphylococcus aureus (MRSA); details: read-out: MRSA MIC, 880 NR-49120
[10] = system: M. massiliense; assay: MIC in nontuberculosis mycobacteria (microbroth dilution, resazurin); format: cell-based, Mycobacterium massiliense
[11] = system: mitochondrial protein synthesis (COX-1/SDH-A ratio) in H9C2 rat heart myoblast cells; assay: Mitochondrial protein synthesis inhibition (MitoBiogenesis in-cell ELISA, COX-1/SDH-A); format: cell-based; details: 120 h, five days, read-out: MPS IC50
[12] = system: MRSA ATCC BAA-1556; details: cited from earlier work
[13] = system: M. kansasii; assay: MIC in nontuberculosis mycobacteria (microbroth dilution, resazurin); format: cell-based; details: Mycobacterium kansasii
[14] = from drugbank.ca; cited from earlier work
[15] = Liposome loading / encapsulation efficiency (General protocol); details: for maximum drug load: HSPC:Chol 3:2, 0.5 mol% PEG-DSG (Example 14); for liposome aggregation during drug loading: AKG-28: 5 mol% PEG-DSG or PEG-DSPE, AKG-38: 5 mol% PEG-DSPE
[16] = system: human hepatocyte/liver (HepG2; ATCC #HB8065) cells; assay: In vitro cytotoxicity (PrestoBlue cell viability), HepG2; format: cell-based
[17] = system: African green monkey kidney (Vero; ATCC # CCL81) cells; assay: In vitro cytotoxicity (PrestoBlue cell viability), Vero; format: cell-based
[18] = system: M. Tuberculosis Erdman or H37Rv vs VERO or HepG2 cells; assay: Selectivity Index (mammalian cell IC50 / bacterial MIC); design: species or system Mycobacterium tuberculosis
[19] = In vitro burst release of liposomal drug in plasma, human; details: mouse or human plasma, 20 min 37° C., 0.5 M AS liposomes, 40-65 mol% Chol (FIG. 5A, 5B)
Protocol: The plasma was thawed, if necessary, adjusted to pH 7.4 with 1 N HCl, and sequentially filtered through glass microfiber filters (GF/C), 1 µm polyethersulfone (PES), and 0.22 µm PES filters. Plasma (80 µl) was mixed with liposomal drug formulations (20 µl) in a 0.5 ml Eppendorf tube. The mixture was subsequently incubated for 20 min at 37° C. and then put into chilled water.
Incubation time was 20 min.

[20] = read-out: MRSA MIC, ATCC BAA-1556
[21] = M. chelonae strain 49, read-out: MIC
[22] = M. chelonae strain 69, read-out: MIC
[23] = M. avium sbsp. avium strain 2285 R, read-out: MIC
[24] = M. avium sbsp. avium strain 2285 S, read-out: MIC
[25] = M. avium sbsp. avium strain 3993, read-out: MIC
[26] = Mycobacterium tuberculosis, ERDMAN; read-out: Mycobacterium tuberculosis MIC, Erdman
[27] = Mycobacterium tuberculosis; M. tuberculosis Erdman / H37Rv, strains not separated; read-out: MIC
[28] = M. abscessus sbsp. abscessus strain 21, read-out: MIC
[29] = M. abscessus sbsp. abscessus strain 1513, read-out: MIC
[30] = M. abscessus sbsp. abscessus strain 1948, read-out: MIC
[31] = Mycobacterium tuberculosis, H37RV; as determined in Example 2; read-out: MIC (H37Rv)
[32] = Mycobacterium tuberculosis, H37RV; read-out: Mycobacterium tuberculosis MIC, H37Rv
[33] = Mycobacteroides abscessus, CIP108297, M. massiliense strain CIP 108297, read-out: MIC
[34] = Mycobacteroides abscessus, M. massiliense strain CRM0019, read-out: MIC
[35] = M. kansasii strain 662, read-out: MIC
[36] = M. kansasii strain 732, read-out: MIC
[37] = M. kansasii strain 824, read-out: MIC
[38] = M. kansasii strain MK13D6, read-out: MIC
[39] = 30 mol% cholesterol, 1 N TEA-SOS

Cn1nnc(-c2ccc(-c3ccc(N4C[C@H](CO)OC4=O)cc3F)cn2)n1 [Tedizolid, reference compound]
MIC ([1]; read-out: MRSA MIC): 0.206 to 0.617 µg/mL (≈ 0.556 to 1.67 µM)
MIC [1, 20]: 0.617 µg/mL (≈ 1.67 µM)
MIC [2]: 0.617 µg/mL (≈ 1.67 µM)
solubility in water for gradient-assisted liposome loading [3]: not soluble enough in water
MIC [4, 21]: 0.25 µg/mL (≈ 0.675 µM)
MIC [4, 22]: 2 µg/mL (≈ 5.4 µM)
MIC ([4]; M. chelonae strain 35752): 0.125 µg/mL (≈ 0.338 µM)
MIC [5, 23]: 0.25 µg/mL (≈ 0.675 µM)
MIC [5, 24]: 0.25 µg/mL (≈ 0.675 µM)
MIC [5, 25]: 0.25 µg/mL (≈ 0.675 µM)
MIC [6, 26]: 0.25 µg/mL (≈ 0.675 µM)
MIC [6, 27]: 0.25 µg/mL (≈ 0.675 µM)
MIC [7, 28]: 0.5 µg/mL (≈ 1.35 µM)
MIC [7, 29]: 4 µg/mL (≈ 10.8 µM)
MIC [7, 30]: 0.5 µg/mL (≈ 1.35 µM)
MIC [8, 31]: 0.25 µg/mL (≈ 0.675 µM)
MIC [8, 32]: 0.25 µg/mL (≈ 0.675 µM)
MIC [9]: 0.206 µg/mL (≈ 0.556 µM)
MIC ([10]; M. massiliense strain M154): 0.06 µg/mL (≈ 0.162 µM)
activity relative to AKG-28 and AKG-38 ([10]; M. massiliense, three strains): more active in all three strains evaluated
MIC [10, 33]: 0.25 µg/mL (≈ 0.675 µM)
MIC [10, 34]: 0.06 µg/mL (≈ 0.162 µM)
IC50 [11]: 0.143 µg/mL (≈ 0.386 µM)
MRSA MIC described in U.S. Pat. No. 7,816,379 [12]: 0.5 µg/mL
MIC [13]: 0.125 µg/mL (≈ 0.338 µM)
MIC [13, 35]: > 32 µg/mL
MIC [13, 36]: 0.25 µg/mL (≈ 0.675 µM)
MIC [13, 37]: 0.25 µg/mL (≈ 0.675 µM)
MIC [13, 38]: 0.25 µg/mL (≈ 0.675 µM)

CC(=O)NC[C@H]1CN(c2ccc(N3CCSCC3)c(F)c2)C(=O)O1 [Sutezolid, reference compound]
MIC [6, 26]: 0.5 µg/mL (≈ 1.41 µM)
MIC [8, 32]: 0.5 µg/mL (≈ 1.41 µM)
known aqueous solubility [14]: 237 µg/mL

CN(C)CCn1nnc(-c2ccc(-c3ccc(N4C[C@H](CN)OC4=O)cc3F)cn2)n1.Cl [AKG-28]
MIC ([1]; read-out: MRSA MIC): > 50 µg/mL
MIC [1, 20]: > 50 µg/mL
maximum drug load ([15]; 0.5 M AS): 404-424 g/mol PhL
loading efficiency ([15]; 0.5 M AS, at drug loads of 302 (AKG-28) and 387-764 (AKG-38) g/mol PhL): quantitative loading
maximum drug load ([15]; 1 N TEA-SOS): 315-328 g/mol PhL
maximum loading efficiency ([15]; 1 N TEA-SOS, at drug load 250 (AKG-28) and 400-777 (AKG-38) g/mol PhL): 83.5%
liposome aggregation during drug loading [15, 39]: irreversibly aggregated during the drug loading
loading efficiency (from unencapsulated drug in pre-concentration diafiltrate) ([15]; scaled-up lots, HSPC:Chol:PEG-DSPE 45:55:2.25, 0.5 M AS, DL 250 (AKG-28) or 450 (AKG-38) g/mol): 99.1% and 99.3%
MIC [2]: > 50 µg/mL
Concentration % (w/w) of free base (visually clear solution) [3]: 7.3 % (w/w)
MIC ([4]; M. chelonae strain 49): 0.06 µg/mL
MIC ([4]; M. chelonae strain 69): 0.5 µg/mL
MIC ([4]; M. chelonae strain 35752): 0.125 µg/mL
potency relative to tedizolid in NTM species and strains ([5]; M.avium, M. chelonae, M. abscessus and M. kansasii): generally more potent than tedizolid
MIC [5, 23]: 0.06 µg/mL
MIC ([5]; M. avium sbsp. avium strain 2285 S): 0.125 µg/mL
MIC ([5]; M. avium sbsp. avium strain 3993): 0.125 µg/mL
fold more potent than linezolid in killing M. Tuberculosis in vitro ([6]; Erdmann strain): 33 fold
MIC ([6]; Mycobacterium tuberculosis, ERDMAN, read-out: Mycobacterium tuberculosis MIC, Erdman): 0.03 µg/mL
MIC ([7]; M. abscessus sbsp. abscessus strain 21): 0.25 µg/mL
MIC ([7]; M. abscessus sbsp. abscessus strain 1513): 32 µg/mL
MIC ([7]; M. abscessus sbsp. abscessus strain 1948): 0.125 µg/mL
IC50 ([16]; Homo sapiens, HepG2, 72 h, read-out: Cell viability IC50, HepG2): 13.4 µg/mL
MIC ([8]; Mycobacterium tuberculosis, H37RV, read-out: MIC (H37Rv)): 0.015 µg/mL
MIC ([8]; Mycobacterium tuberculosis, H37RV, read-out: Mycobacterium tuberculosis MIC, H37Rv): 0.015 µg/mL
MIC [9]: > 50 µg/mL
IC50 ([17]; Chlorocebus sabaeus, Vero, 72 h, read-out: Cell viability IC50, VERO): 83 µg/mL
Selectivity Index (SI) Erd/HepG2 [18]: 446.7
Selectivity Index (SI) Erd/VERO [18]: 2766.7
MIC ([10]; Mycobacteroides abscessus): 0.25 µg/mL
MIC ([10]; Mycobacteroides abscessus, CIP108297): 1 µg/mL
IC50 [11]: 0.411 µg/mL
burst release phenomenon in plasma in vitro [19]: observed in human plasma for the formulations containing 40 mol.% cholesterol, but not for the formulations with 45 mol.% or more of cholesterol
MIC [13]: 0.125 µg/mL
MIC [13, 35]: > 32 µg/mL

CC(=O)NC[C@H]1CN(c2ccc(-c3ccc(-c4nnn(CCN(C)C)n4)nc3)c(F)c2)C(=O)O1 [AKG-38]
MIC [1, 20]: 1.85 µg/mL (≈ 3.95 µM)
maximum drug load ([15]; 0.5 M AS): 818-842 g/mol PhL
maximum drug load ([15]; 1 N TEA-SOS): 989 g/mol PhL
liposome aggregation during drug loading [15, 39]: irreversibly aggregated during the drug loading
drug load ([15]; 30 mol% cholesterol, 5 mol % PEG-DSG, 1 N TEA-SOS): 462.4 g/mol PhL
MIC [2]: 1.85 µg/mL (≈ 3.95 µM)
Concentration % (w/w) of free base (visually clear solution) [3]: 7.1 % (w/w)
MIC [4, 21]: 0.06 µg/mL (≈ 0.128 µM)
MIC [4, 22]: 0.5 µg/mL (≈ 1.07 µM)
MIC ([4]; M. chelonae strain 35752, read-out: MIC): 0.06 µg/mL (≈ 0.128 µM)
MIC [5, 23]: 0.06 µg/mL (≈ 0.128 µM)
MIC [5, 24]: 0.125 µg/mL (≈ 0.267 µM)
MIC [5, 25]: 0.125 µg/mL (≈ 0.267 µM)
MIC [6, 26]: 0.06 µg/mL (≈ 0.128 µM)
MIC [6, 27]: 0.06 µg/mL (≈ 0.128 µM)
MIC [7, 28]: 0.06 µg/mL (≈ 0.128 µM)
MIC [7, 29]: 32 µg/mL (≈ 68.3 µM)
MIC [7, 30]: 0.06 µg/mL (≈ 0.128 µM)
IC50 ([16]; Homo sapiens, HepG2, 72 h; read-out: Cell viability IC50, HepG2): 97 µg/mL (≈ 207 µM)
MIC [8, 31]: 0.06 µg/mL (≈ 0.128 µM)
MIC [8, 32]: 0.06 µg/mL (≈ 0.128 µM)
MIC [9]: 0.617 µg/mL (≈ 1.32 µM)
IC50 ([17]; Chlorocebus sabaeus, Vero, 72 h; read-out: Cell viability IC50, VERO): 395 µg/mL (≈ 843 µM)
MIC ([10]; M. massiliense strain M154): 0.25 µg/mL (≈ 0.534 µM)
MIC [10, 33]: 0.5 µg/mL (≈ 1.07 µM)
MIC [10, 34]: 0.25 µg/mL (≈ 0.534 µM)
IC50 [11]: 0.041 µg/mL (≈ 0.0875 µM)
burst release phenomenon in plasma in vitro [19]: observed in both human and mouse plasma for the formulations with cholesterol content of 40 mol.% and 45 mol.%, but not at cholesterol content of 50 mol.% or more
MIC [13, 35]: > 32 µg/mL
MIC [13, 36]: 0.03 µg/mL (≈ 0.064 µM)
MIC [13, 37]: 0.06 µg/mL (≈ 0.128 µM)
MIC [13, 38]: 0.03 µg/mL (≈ 0.064 µM)
MIC ([13]; M. kansasii strain WT171017, read-out: MIC): 0.03 µg/mL (≈ 0.064 µM)
